Experimental data as given in publication PMC12498426, “Conformational Plasticity of LptC Regulates Lipopolysaccharide Transport by the LptB2FGC Complex” (Journal of the American Chemical Society, 2025).

Tests used:
LptB2FG [1] = biological target: T1, LptB2FG (Escherichia coli, UniProt P0A9V1+P0ADC6+P0AF98); set-up: gene lptF; details: POPE/POPG liposomes; 20 mM MgCl2; pH 7.5; 37 °C; 0-5 mM ATP; no LPS
T1 sequence (P0AF98 1-366): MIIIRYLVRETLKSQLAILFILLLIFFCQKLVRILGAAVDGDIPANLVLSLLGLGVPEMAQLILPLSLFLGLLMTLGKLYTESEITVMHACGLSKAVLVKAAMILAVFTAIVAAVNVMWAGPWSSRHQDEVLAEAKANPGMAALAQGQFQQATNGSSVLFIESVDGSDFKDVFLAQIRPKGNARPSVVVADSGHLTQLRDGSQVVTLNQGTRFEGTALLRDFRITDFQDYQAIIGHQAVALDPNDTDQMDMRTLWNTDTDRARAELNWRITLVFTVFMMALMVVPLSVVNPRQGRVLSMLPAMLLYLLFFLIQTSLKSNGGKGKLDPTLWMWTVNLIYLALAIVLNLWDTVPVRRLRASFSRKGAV
T1 sequence (P0ADC6 1-360): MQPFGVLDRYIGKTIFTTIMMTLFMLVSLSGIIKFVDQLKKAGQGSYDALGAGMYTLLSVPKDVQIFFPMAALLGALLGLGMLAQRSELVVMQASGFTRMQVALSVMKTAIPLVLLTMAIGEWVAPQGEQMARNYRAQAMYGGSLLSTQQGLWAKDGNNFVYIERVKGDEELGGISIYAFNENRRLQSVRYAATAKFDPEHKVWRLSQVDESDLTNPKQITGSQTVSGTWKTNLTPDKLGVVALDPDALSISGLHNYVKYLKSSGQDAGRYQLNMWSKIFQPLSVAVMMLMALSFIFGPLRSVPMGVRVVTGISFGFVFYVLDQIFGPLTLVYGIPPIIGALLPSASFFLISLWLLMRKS
T1 sequence (P0A9V1 2-241): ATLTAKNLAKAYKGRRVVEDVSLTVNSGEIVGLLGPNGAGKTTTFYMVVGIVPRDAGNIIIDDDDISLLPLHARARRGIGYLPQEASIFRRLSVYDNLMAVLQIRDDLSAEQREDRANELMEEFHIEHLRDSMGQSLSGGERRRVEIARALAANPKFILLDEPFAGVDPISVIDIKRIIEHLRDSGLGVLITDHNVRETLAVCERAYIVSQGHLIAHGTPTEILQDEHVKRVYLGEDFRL

LptB2FGC = biological target: T2, LptB2FGC (Escherichia coli, UniProt P0A9V1+P0ADC6+P0AF98); test: nanoDSF thermal shift; format: binding; details: 2-fold molar excess of Ra-LPS; DDM micelles; pH 7.5; 5 mM MgCl2
T2 construct: gene lptF; in vitro assembled from LptB2FG (N-terminal His6 on LptB) and full-length LptC (C-terminal His6); liposomes or resolubilized in DDM; 2:1:1:1, 158 kDa; with Lipopolysaccharide export system protein LptC

LptB2FG [2] = biological target: T1, LptB2FG; test: nanoDSF thermal shift; format: binding; set-up: gene lptF; full-length proteins, N-terminal His6-tag on LptB, pETDuet-1, expressed in E. coli, in DDM micelles or POPE/POPG liposomes; B2FG complex; details: 2-fold molar excess of Ra-LPS; DDM micelles; pH 7.5; 5 mM MgCl2
LptB2FG complex [3] = biological target: T3, LptB2FG complex (E. coli, UniProt P0A9V1 1-241; P0AF98 1-366; P0ADC6 1-360); test: thermal shift assay (nanoDSF); LptB2FG and resolubilised LptB2FGC in 50 mM HEPES pH 7.5, 150 mM NaCl, 5 mM MgCl2, 5% glycerol, 0.05% DDM; 1 °C/min from 25 to 85 °C; first derivative of the 350 nm fluorescence; details: both partners purified
T3 construct: LptF, transmembrane domain subunit of the lipopolysaccharide transporter, E. coli; LptG, transmembrane domain subunit of the lipopolysaccharide transporter, E. coli; Uniformly 13C-labelled for the TEDOR experiments; also called 13C-LptB2FG; ABC transporter LptB2FG; source: E. coli, co-expressed from pETDuet-1, membranes solubilised in DDM, purified (Ni-NTA); expression as previously described; …
T3 sequence (looked up) 1: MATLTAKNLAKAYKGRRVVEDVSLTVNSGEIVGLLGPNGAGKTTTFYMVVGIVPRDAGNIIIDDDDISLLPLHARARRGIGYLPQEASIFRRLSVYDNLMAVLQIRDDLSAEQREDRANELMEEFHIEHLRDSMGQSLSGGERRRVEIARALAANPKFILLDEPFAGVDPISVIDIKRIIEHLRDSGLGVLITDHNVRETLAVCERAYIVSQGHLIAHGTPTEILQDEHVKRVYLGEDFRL
T3 sequence (looked up) 2: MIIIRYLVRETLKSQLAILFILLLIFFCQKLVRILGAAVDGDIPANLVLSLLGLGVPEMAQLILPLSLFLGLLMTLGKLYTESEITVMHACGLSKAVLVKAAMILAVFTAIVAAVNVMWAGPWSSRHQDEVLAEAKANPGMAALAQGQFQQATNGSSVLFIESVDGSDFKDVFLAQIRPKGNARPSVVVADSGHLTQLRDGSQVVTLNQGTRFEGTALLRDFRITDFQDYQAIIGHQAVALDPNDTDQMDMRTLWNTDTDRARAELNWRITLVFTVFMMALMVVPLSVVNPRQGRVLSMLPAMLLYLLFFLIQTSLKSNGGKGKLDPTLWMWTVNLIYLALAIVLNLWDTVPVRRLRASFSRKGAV
T3 sequence (looked up) 3: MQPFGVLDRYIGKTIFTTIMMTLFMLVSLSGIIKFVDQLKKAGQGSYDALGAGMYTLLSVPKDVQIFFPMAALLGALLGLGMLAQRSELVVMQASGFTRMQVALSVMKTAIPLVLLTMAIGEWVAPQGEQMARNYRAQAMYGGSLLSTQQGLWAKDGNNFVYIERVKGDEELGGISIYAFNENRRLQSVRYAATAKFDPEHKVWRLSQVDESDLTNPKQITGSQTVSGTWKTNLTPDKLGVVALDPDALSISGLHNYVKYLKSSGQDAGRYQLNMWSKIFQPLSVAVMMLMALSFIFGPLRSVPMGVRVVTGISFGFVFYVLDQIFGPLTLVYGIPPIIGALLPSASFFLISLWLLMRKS

LptB2FG complex [4] = biological target: T3, LptB2FG complex; test: native MS; LILBID-MS of LptB2FGC resolubilised in DDM micelles, apo state, 20 mM Tris-HCl pH 7.5, 0.05% DDM; details: both partners purified

Nc1ncnc2c1ncn2[C@@H]1O[C@H](COP(=O)(O)OP(=O)(O)OP(=O)(O)O)[C@@H](O)[C@H]1O [ATP]
malachite green ATPase assay, proteoliposomes (LptB2FG [1]): activity of LptB2FG and LptB2FGC was determined by measuring the release of inorganic phosphate

Ra-LPS
increase in melting temperature (LptB2FGC): -271 °C
shift in melting temperature (LptB2FG [2]): ~ 9 K

B1: LptC, full length with its transmembrane helix (natural protein, E. coli, UniProt P0ADV9 1-191, looked up)
chain: MSKARRWVIIVLSLAVLVMIGINMAEKDDTAQVVVNNNDPTYKSEHTDTLVYNPEGALSYRLIAQHVEYYSDQAVSWFTQPVLTTFDKDKIPTWSVKADKAKLTNDRMLYLYGHVEVNALVPDSQLRRITTDNAQINLVTQDVTSEDLVTLYGTTFNSSGLKMRGNLRSKNAELIEKVRTSYEIQNKQTQP
notes: LptC, E. coli, full length including the transmembrane helix; Isotope labelled for NMR (13C,15N-lysine or uniform 15N); also called 15N-LptC; 15N,13C-Lys-LptC; source: E. coli BL21(DE3), pBAD33.1, membranes solubilised in LS detergent, purified (Ni-NTA)
increase of melting temperature (nanoDSF) (LptB2FG complex [3]): 11 K
stoichiometry N (LptB2FG complex [4]): 1 LptC per LptB2FG
